Measured values published in the NIST ThermoML archive (doi:10.1021/acs.jced.5b00366).

Tests used:
[1] = 102 kPa, Liquid, Vibrating tube method
[2] = xn = mol fraction of the nth substance listed; conditions: 102 kPa, Liquid, Vibrating tube method
[3] = mn = molality of the nth substance listed, in mol/kg; conditions: 102 kPa, Liquid, Vibrating tube method

CCCCO [butan-1-ol]
[1]
Conditions | mass density [kg/m3]
293.15 K | 809.84
298.15 K | 806.03
303.15 K | 802.19
308.15 K | 798.38

CCCCO [butan-1-ol] + CO
mass density [kg/m3], [2]
Conditions | 293.15 K | 298.15 K | 303.15 K | 308.15 K
x1 = 0.05 | 793 | 788.48 | 783.92 | 779.32
x1 = 0.1 | 794.55 | 790.15 | 785.69 | 781.19
x1 = 0.15 | 795.82 | 791.52 | 787.15 | 782.74
x1 = 0.2 | 797.09 | 792.81 | 788.52 | 784.19
x1 = 0.25 | 798.29 | 794.06 | 789.82 | 785.52
x1 = 0.3 | 799.4 | 795.23 | 791.01 | 786.78
x1 = 0.4 | 801.48 | 797.4 | 793.26 | 789.13
x1 = 0.5 | 803.28 | 799.27 | 795.21 | 791.18
x1 = 0.6 | 804.87 | 800.94 | 796.94 | 792.99
x1 = 0.7 | 806.38 | 802.48 | 798.57 | 794.64
x1 = 0.8 | 807.62 | 803.77 | 799.91 | 796.04
x1 = 0.9 | 808.83 | 804.99 | 801.12 | 797.29
x1 = 1 | 809.84 | 806.03 | 802.19 | 798.38

[Cd+2].[I-].[I-] [cadmium iodide (CdI2)] + CCCCO
mass density [kg/m3], [3]
Conditions | m1 = 0.004 | m1 = 0.005 | m1 = 0.006 | m1 = 0.008 | m1 = 0.01 | m1 = 0.02 | m1 = 0.05 | m1 = 0.08
293.15 K | 811.57 | 811.75 | 811.98 | 812.48 | 813.03 | 815.24 | 822.26 | 830.17
298.15 K | 807.62 | 807.92 | 808.19 | 808.94 | 809.67 | 811.39 | 819.27 | 826.26
303.15 K | 803.74 | 804.06 | 804.49 | 805.19 | 805.87 | 807.51 | 814.48 | 822.32
308.15 K | 799.64 | 800.2 | 800.59 | 801.3 | 802.1 | 803.62 | 810.6 | 818.39

[Cd+2].[I-].[I-] [cadmium iodide (CdI2)] + CO
mass density [kg/m3], [3]
Conditions | m1 = 0.004 | m1 = 0.005 | m1 = 0.006 | m1 = 0.008 | m1 = 0.01 | m1 = 0.02 | m1 = 0.05 | m1 = 0.08
293.15 K | 792.58 | 792.87 | 793.02 | 793.63 | 794.17 | 797.09 | 805.07 | 811.5
298.15 K | 787.92 | 788.22 | 788.45 | 789.1 | 789.72 | 792.37 | 800.28 | 806.75
303.15 K | 783.18 | 783.49 | 783.71 | 784.31 | 784.72 | 787.65 | 795.4 | 801.87
308.15 K | 778.43 | 778.74 | 778.86 | 779.43 | 780.04 | 782.94 | 790.79 | 797.4

CO [methanol]
[1]
Conditions | mass density [kg/m3]
293.15 K | 791.34
298.15 K | 786.68
303.15 K | 781.96
308.15 K | 777.21

CO [methanol] + CCCCO
[2], x2 = 0
Conditions | mass density [kg/m3]
293.15 K | 791.34
298.15 K | 786.68
303.15 K | 781.96
308.15 K | 777.21
